In PMC7930564, “First Case of Glyphosate Resistance in Bromus catharticus Vahl.: Examination of Endowing Resistance Mechanisms” (Frontiers in Plant Science, 2021):

Tested on: T1, EPSPS (5-enolpyruvylshikimate-3-phosphate synthase), glyphosate-resistant (R) population
T1 construct: native enzyme in leaf extract (total soluble protein) of R plants, not recombinant; no target-site substitution at codons 101, 102, 103, 106, 144, 192; homoeologous copies not resolved
Assay: phosphate release, EnzChek Phosphate Assay Kit, […] nm, leaf extract
Type: biochemical, Bromus catharticus
Conditions: substrates phosphoenolpyruvate and shikimate-3-phosphate; glyphosate 0 to 5,000 μM; Figure 6 legend fit prints 0.16; read-out: I50

## O=C(O)CNCP(=O)(O)O [glyphosate, N-phosphonomethyl glycine]
  IC50: 150 nM
